In US10590143B2, “Herbicidally active (alkynyl-phenyl)-substituted cyclic dione compounds and derivatives thereof” (Syngenta Limited, priority 2013, dated 2020):
Where two headings read alike, the source gives them in different places.

Assays:
Test in all cases: Biological Example 1 glasshouse assay for herbicidal activity
Assay type in all cases: in vivo
[1] = tested on: Amaranthus retroflexus (AMARE); conditions: 13 days after application; for pest or weed control at 8 g/ha / pest or weed control at 250 g/ha / pest or weed control at 30 g/ha: Amaranthus retroflexus, 312 h, read-out: percentage phytotoxicity AMARE
How it was run: (§1)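 Visual % phytotoxicity (0% = no damage, 100% = total damage) scored 13 days after spraying. Spray: acetone/water 50:50 + 0.5% Tween 20, applied pre-emergence (day 1 after sowing) or post-emergence (day 8). Usually one plant per species per rate and timing.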

[2] = tested on: Alopecurus myosuroides (ALOMY); conditions: 312 h, 13 days after application, read-out: percentage phytotoxicity ALOMY
How it was run: as §1

[3] = tested on: Abutilon theophrasti (ABUTH); conditions: 312 h, 13 days after application, read-out: percentage phytotoxicity ABUTH
How it was run: as §1

[4] = tested on: Echinochloa crus-galli (ECHCG); conditions: 13 days after application; for pest or weed control at 30 g/ha / pest or weed control at 250 g/ha: Echinochloa crus-galli, 312 h, read-out: percentage phytotoxicity ECHCG; for pest or weed control at 250 g/ha / percentage phytotoxicity ECHCG: 250 g/ha
How it was run: as §1

[5] = tested on: Setaria faberi (SETFA); conditions: 312 h, 13 days after application, read-out: percentage phytotoxicity SETFA
How it was run: as §1

[6] = tested on: Zea mays (ZEAMX, corn, maize, e.g. volunteer corn); conditions: 13 days after application; for pest or weed control at 8 g/ha / pest or weed control at 30 g/ha / pest or weed control at 250 g/ha: Zea mays, 312 h, read-out: percentage phytotoxicity ZEAMX; for pest or weed control at 250 g/ha / percentage phytotoxicity ZEAMX: 250 g/ha
How it was run: as §1

[7] = post-emergence, post-emergence, 250 g/ha
[8] = pre-emergence, pre-emergence, 250 g/ha

| Structure (SMILES) | pest or weed control at 250 g/ha [1, 7] | pest or weed control at 30 g/ha ([1]; pre-emergence, pre-emergence) | pest or weed control at 250 g/ha [1, 8] | pest or weed control at 30 g/ha ([2]; post-emergence) | pest or weed control at 250 g/ha ([2]; post-emergence) | pest or weed control at 30 g/ha ([2]; pre-emergence) | pest or weed control at 250 g/ha ([2]; pre-emergence) | pest or weed control at 30 g/ha ([3]; pre-emergence, pre-emergence) | pest or weed control at 30 g/ha ([4]; post-emergence, post-emergence) | pest or weed control at 250 g/ha ([4]; post-emergence, post-emergence) | pest or weed control at 250 g/ha ([4]; pre-emergence, pre-emergence) | pest or weed control at 250 g/ha ([5]; post-emergence, post-emergence) | pest or weed control at 250 g/ha ([5]; pre-emergence, pre-emergence) | pest or weed control at 30 g/ha ([6]; post-emergence, post-emergence) | pest or weed control at 250 g/ha ([6]; post-emergence, post-emergence) | pest or weed control at 30 g/ha ([6]; pre-emergence, pre-emergence) | pest or weed control at 250 g/ha ([6]; pre-emergence, pre-emergence) | pest or weed control at 250 g/ha ([3]; post-emergence, post-emergence) | pest or weed control at 250 g/ha ([3]; pre-emergence, pre-emergence) | pest or weed control at 30 g/ha ([4]; pre-emergence, pre-emergence) | further results |
| --- | --- | --- | --- | --- | --- | --- | --- | --- | --- | --- | --- | --- | --- | --- | --- | --- | --- | --- | --- | --- | --- |
| CC#Cc1cc(F)c(C2C(=O)C3CCC(C3)C2=O)c(OC)c1 (stereo not shown) [Compound A1, 3-(2-Fluoro-6-methoxy-4-prop-1-ynyl-phenyl)-bicyclo[3.2.1]octane-2,4-dione] | 30% | 0% | 20% | 100% | 100% | 100% | 100% | 0% | 100% | 100% | 100% | 100% | 100% | 100% | 100% | 100% | 100% | – | – | – | pest or weed control at 8 g/ha ([1]; post-emergence, post-emergence): 0%; pest or weed control at 8 g/ha ([1]; pre-emergence, pre-emergence): 0%; percentage phytotoxicity AMARE ([1]; post-emergence, 250 g/ha): 30%; pest or weed control at 8 g/ha ([2]; post-emergence): 80%; pest or weed control at 8 g/ha ([2]; pre-emergence): 70%; pest or weed control at 8 g/ha ([3]; post-emergence, post-emergence): 0%; pest or weed control at 8 g/ha ([3]; pre-emergence, pre-emergence): 0%; percentage phytotoxicity ECHCG ([4]; post-emergence): 100%; percentage phytotoxicity ECHCG ([4]; pre-emergence): 100%; pest or weed control at 8 g/ha ([5]; pre-emergence, pre-emergence, 8 g/ha): 50%; pest or weed control at 8 g/ha ([6]; post-emergence, post-emergence): 100%; pest or weed control at 8 g/ha ([6]; pre-emergence, pre-emergence): 60%; percentage phytotoxicity ZEAMX ([6]; post-emergence): 100%; percentage phytotoxicity ZEAMX ([6]; pre-emergence): 100% |
| CC#Cc1cc(F)c(C2C(=O)C3CCC(C)(C2=O)C3(C)C)c(OC)c1 (stereo not shown) [Compound A2] | 0% | 10% | 40% | 80% | 90% | 70% | 90% | 60% | 100% | 100% | 100% | 90% | 100% | 100% | 100% | 60% | 100% | 0% | 60% | 90% | pest or weed control at 30 g/ha ([1]; post-emergence, post-emergence): 0%; pest or weed control at 30 g/ha ([3]; post-emergence, post-emergence): 0%; pest or weed control at 30 g/ha ([5]; post-emergence, post-emergence): 90%; pest or weed control at 30 g/ha ([5]; pre-emergence, pre-emergence): 70% |
| CC#Cc1cc(F)c(C2C(=O)C3CCC(C3)C2=O)c(OC(F)F)c1 (stereo not shown) [Compound A7] | 60% | 40% | 70% | 60% | 90% | 60% | 100% | 20% | 90% | 100% | 100% | 90% | 70% | 80% | 100% | 80% | 100% | 70% | 30% | 60% | pest or weed control at 30 g/ha ([1]; post-emergence, post-emergence): 50%; pest or weed control at 30 g/ha ([3]; post-emergence, post-emergence): 0%; pest or weed control at 30 g/ha ([5]; post-emergence, post-emergence): 70%; pest or weed control at 30 g/ha ([5]; pre-emergence, pre-emergence): 50% |
| COc1cc(C#CCl)cc(F)c1C1C(=O)C2CCC(C2)C1=O (stereo not shown) [Compound A8, 3-[4-(2-chloroethynyl)-2-fluoro-6-methoxy-phenyl]bicyclo[3.2.1]octane-2,4-dione] | 10% | 50% | 40% | – | 70% | 40% | 60% | 10% | – | 70% | 60% | 70% | 60% | – | 50% | 60% | 70% | 0% | 0% | 30% | pest or weed control at 30 g/ha ([5]; pre-emergence, pre-emergence): 60% |
